From patent US10905757B2, “Cross-reactive T cell epitopes of HIV, SIV, and FIV for vaccines in humans and cats” (priority 2012, dated 2021) come the findings set out here.

Assay [1] deals with PBMC from FIV-vaccinated cats. Nature of the assay: IL2 ELISpot, PBMC from FIV-vaccinated cats (prototype vaccine, or prime plus MAP boosts). The assay is classed as cell-based, cat. Particulars: for IL2 (SFU): prime 1x IWV, post-second MAP boost, peptide or MAP as culture stimulant, >50 positive. The source says:
(§1) Peptide Fp4-3 (left), peptide Fp14-1 (middle) and MAP1 [right] were culture stimulants. IL2 and IFNγ ELISpot results of >50 spot forming units (SFU/10^6 PBMC) and CFSE-proliferation of >2 are considered positive (bolded). The prime-boost vaccination induced IL2 responses in 3 of 4 cats and IFNγ response in one. Larger responses were induced by MAP1 than individual peptides in culture.

The subject of assay [2] is FIV infection of naïve cat PBMC. Nature of the assay: In vitro FIV enhancing/inhibitory (E/I) assay in PBMC from naïve SPF cats (RT titer). The assay is classed as cell-based. The conditions noted are these: PBMC from naïve cats. How it is done:
FIG. 35. FIV-enhancing versus inhibitory epitopes on peptides and MAPs used in pilot MAP Study. […] Abbreviation: MAP1 plus MAP2 mix (MAP1+2).
FIG. 36A and 36B. FIV/HIV-1 enhancing versus inhibitory epitopes. […] Four epitope peptides were tested in an in vivo efficacy study with prototype vaccine prime and MAP boosts against pathogenic FIV challenge (see MAP section).
To test the possibility that Fp4-3 peptide may be enhancing FIV infection, we performed an in vitro FIV enhancing/inhibitory analysis with all MAP peptides and immunogens. […]. Since MAP2 consisted of peptides FRT3-3 and FRT3-4 with a natural overlap (FIG. 34), such overlap may have blocked the enhancing activity of peptide FRT3-3 while allowing the inhibitory activity of peptide FRT3-4. […] Moreover, none of the MAP vaccinated cats had early detection or enhancement in viral load compared to the control cats. Perhaps, the strong immunity generated by the MAP2 has blocked the enhancing activity of the MAP1 when boosted together (Group 1, Table 3). To test this possibility, in vitro study is currently undergoing to evaluate whether MAP2 can block FIV enhancing activity of MAP1. Furthermore, more cats will be vaccinated with MAP 1b and MAP2 to determine the levels of cytotoxins generated to peptides Fp14-1, FRT3-3 and FRT3-4. Since these peptides have induced CTL-associated cytotoxin expression in T cells from HIV^+ subjects (FIGS. 31A-31B; FIG. 5 in (Sanou et al. 2013)), these EC peptides may also mediate their in vivo effects by inducing anti-FIV specific CTL activity.
However, only peptide Fp4-3 correlated with the in vitro enhancement induced by MAP1. Since the in vitro E/I assay uses PBMC from naïve specific pathogen free (SPF) cats, it is unlikely that the in vitro stimulation of anti-FIV CTLs occurred in the culture and eliminated the infected cells. More likely, these enhancing or inhibitory peptides induced cytokines (enhancement: IFNγ, TNFα, GM-CSF; inhibition: IFNα, IL10), chemokines (inhibition: MIP1α, MIP1β, SDF-1, RANTES), or cellular restriction factors (inhibition: Trim5α, APOBEC3g) that either enhanced or inhibited FIV/HIV-1 infection. […] IFNγ is produced during inflammatory responses to HIV-1 infection (Ipp and Zemlin 2013). Thus, high levels of antiviral cellular immune responses are needed while minimizing both non-specific and viral-specific activation of CD4^+ T cells which can enhance viral replication (Lane 2010). Removal of the enhancing epitopes on FIV and HIV-1 immunogens will be critical to produce an effective HIV-1 vaccine. To accomplish this goal, we will design a vaccine based on antiviral epitopes directed at inducing viral-specific CD4^+ CTLs, CD8^+ CTLs and polyfunctional T cells, and identifying viral enhancing epitopes to remove from vaccine candidates.

Assay [3] concerns CD3+CD8+ T cells from FIV-vaccinated cats. Kind of assay: CFSE-proliferation, CD8+ T cells from FIV-vaccinated cats. The conditions noted are these: prime 1x IWV, post-second MAP boost, peptide or MAP as culture stimulant, >2 positive. The assay is classed as cell-based, cat.
Text: (§2) FIGS. 32A and 32B. T-cell proliferation responses to FIV p24 peptide pools by vaccinated cats. […] (FIG. 32A) and CD3^+CD8^+ (FIG. 32B) T-cell proliferation responses are shown for prototype FIV-vaccinated cats. The FIV vaccinated cats were semi-inbred cats with blue, dark red, and pink/green bars from different MHC-lineage colonies. The semi-inbred cats with light pink and green bars are from the same […] lineage. Pools Fp9 and Fp14 are recognized by both HIV^+ subjects and vaccinated cats (i.e., evolutionarily conserved [EC] epitopes) but pools Fp3 and Fp4 are not recognized by HIV^+ subjects (i.e., non-EC epitopes). The IFNγ responses of these cats were either low or below the cut-off threshold of 50 SFU/1×10^6 PBMC. The peptides that stimulated the most proliferation responses: non-EC peptide Fp4-3 in pool Fp4 and EC peptide Fp14-1 in pool Fp14 were used in in vivo study below (FIG. 34).
(§3) FIGS. 33A-33C. IFNγ and T-cell proliferation responses to Fp9 and Fp14 by the FIV-vaccinated cats and FIV-infected cats. The T cells or PBMC from 32 FIV-vaccinated cats were stimulated with either Fp9 or Fp14 and evaluated for proliferation (FIG. 33A) or IFNγ (FIG. 33B) responses. In addition, the PBMC from 32 FIV-infected cats at 22-52 weeks of infection and 20 HIV-1 p24-immunized cats were tested for IFNγ responses to the same peptide pools (FIG. 33B). Three types of laboratory cats were used in these studies: semi-inbred line 1 (Semi-Inbred 1), semi-inbred line 2 (Semi-Inbred 2), and outbred cats (Outbred) from laboratory cat vendors. Semi-inbred cats have been inbred for 3-5 generations with defined feline leukocyte antigen (FLA) alleles and are divided into two FLA haplotype lines. FIV vaccine consisted of prototype dual-subtype FIV vaccine (Coleman et al. 2014). The insert in each panel defines the numbers of each type of cats as well as vaccination (Vac.) or infection (Infect.) status. The number of cat responders used varies between the analyses performed for the individual Fp14 peptides (FIG. 33C, left for IFNγ and right for proliferation).
as §1

The subject of assay [4] is CD4+ T cells from FIV-vaccinated cats. Nature of the assay: CFSE-proliferation, CD4+ T cells from FIV-vaccinated cats. The assay is classed as cell-based, cat. The conditions noted are these: for Proliferation (CFSE^low) CD4^+ T cells: prime 1x IWV, post-second MAP boost, peptide or MAP as culture stimulant, >2 positive.
Text: as §2, §3, §1

Assay [5] has as its system PBMC from FIV-vaccinated cats. Kind of assay: IFNγ ELISpot, PBMC from FIV-vaccinated cats (prototype vaccine, or prime plus MAP boosts). Particulars: for IFNγ (SFU): prime 1x IWV, post-second MAP boost, peptide or MAP as culture stimulant, >50 positive. The assay is classed as cell-based, cat.
Text: as §1

For assay [6], the system named is PBMC from SIV-infected rhesus macaques. The assay is classed as cell-based, rhesus macaque. Particulars: macaques R395, R397, R416, R422.
The mark [7] stands for this setting: cat DVB, boost-1 MAP1b, boost-2 MAP1b.
The mark [8] stands for this setting: cat DVD, boost-1 MAP1, boost-2 MAP1.
The mark [9] stands for this setting: cat QVQ, boost-1 MAP1b, boost-2 MAP1b.
The mark [10] stands for this setting: cat QVW, boost-1 MAP1, boost-2 MAP1.

“Also recorded” adds a separate entry of the source.

For the sequence PTDMATLIMAAPGCA [Fp4-3], in assay [1], the “IL2 responses in PBMC from FIV-vaccinated cats (in words)” value is recorded as “induced predominantly”. Besides, the “IL2 (SFU)” value in assay [1] (setting [7]) is listed as 0 SFU/10^6 PBMC; in assay [1] (setting [8]), 95 SFU/10^6 PBMC; in assay [1] (setting [9]), 0 SFU/10^6 PBMC; in assay [1] (setting [10]) it was 0/0 SFU/10^6 PBMC. For the same sequence, the “effect on in vitro FIV infection” value in assay [2] is recorded as “significant enhancement; also recorded: significantly enhanced”. Further, the “Proliferation (CFSE^low) CD8^+ T cells” value was 0 in assay [3] (setting [7]), 6 in assay [3] (setting [8]), 0 in assay [3] (setting [9]) and 0 in assay [3] (setting [10]). In addition, the “CD4+ T-cell proliferation in FIV-vaccinated cats (in words)” value in assay [4] is reported as “induced predominantly”. The “Proliferation (CFSE^low) CD4^+ T cells” value in assay [4] (setting [7]) is 0; in assay [4] (setting [8]), 3; in assay [4] (setting [9]) it was 1/1; in assay [4] (setting [10]), 0. In addition, the “IFNγ responses in PBMC from FIV-vaccinated cats (in words)” value in assay [5] is reported as “induced predominantly; also recorded: high levels”. The “IFNγ (SFU)” value in assay [5] (setting [7]) is reported as 0/0 SFU/10^6 PBMC; in assay [5] (setting [8]), 132 SFU/10^6 PBMC; in assay [5] (setting [9]) it was 0/0 SFU/10^6 PBMC; in assay [5] (setting [10]), 21 SFU/10^6 PBMC.

Turning to WRKLVDFRE [shorter peptide of HRT3], the “reactivity of PBMC from individual infected macaques” value in assay [6] is “reacted”.

In the case of KWRKLVDFRELNKR [H3-4], the “reactivity of PBMC from individual infected macaques” value in assay [6] is “reacted”.

Consider “PTDLATLILAAPGSARVKRDQEQNTAEVKLYLK [MAP1, palmitated multiple antigenic peptide: Fp4-3/furin-sensitive-linker/Fp14-1]”, for which the “IL2 (SFU)” value in assay [1] (setting [7]) is “[76] SFU/10^6 PBMC”; in assay [1] (setting [8]) it was “[296] SFU/10^6 PBMC”; in assay [1] (setting [9]), “[165] SFU/10^6 PBMC”; in assay [1] (setting [10]), “[9] SFU/10^6 PBMC”. Also, the “effect on in vitro FIV infection” value in assay [2] is on record as “significant enhancement”. Further, the “Proliferation (CFSE^low) CD8^+ T cells” value is “[10]” in assay [3] (setting [7]), “[9]” in assay [3] (setting [8]), “[7]” in assay [3] (setting [9]) and “[6]” in assay [3] (setting [10]). Moreover, the “Proliferation (CFSE^low) CD4^+ T cells” value in assay [4] (setting [7]) is “[1]”; in assay [4] (setting [8]), “[2]”; in assay [4] (setting [9]) it was “[7]”; in assay [4] (setting [10]), “[7]”. Besides, the “IFNγ (SFU)” value in assay [5] (setting [7]) is “[0] SFU/10^6 PBMC”; in assay [5] (setting [8]), “[206] SFU/10^6 PBMC”; in assay [5] (setting [9]), “[43] SFU/10^6 PBMC”; in assay [5] (setting [10]), “[0] SFU/10^6 PBMC”.
